What was measured:
DENV [1] = assay: Exogenous COX-2 (pCMV-COX-2-Myc) overexpression rescue of DENV replication in Huh-7 cells; format: cell-based, dengue virus; details: 1 μM; pCMV-COX-2-Myc transfected Huh-7 cells
Description: (§1) In a previous study, Lin et al. reported that induction of COX-2 could suppress DENV replication. To determine whether compound 19a had impact on COX-2 protein and mRNA expression in Huh-7 cells, we treated Huh-7 cells with 0.5 to 5 μM of 19a. […] To characterize whether the 19a-mediated downregulation of COX-2 expression and its catalytic activity was involved in the suppression of DENV replication, we overexpressed exogenous COX-2 to evaluate the inhibitory activity of 19a on DENV replication. […] Consistently, the exogenous expression of COX-2 attenuated the inhibitory effect of 19a on the non-structural 2B (NS2B) protein levels, as analyzed by Western blotting.
Huh-7-DV-Fluc cells were seeded in 24-well plates at a density of 2 × 10^4 cells per well, and treated with the 3-arylquinoxaline compounds at two concentrations (1 and 10 μM) or 0.1% DMSO as control. […] After three days, protein and RNA levels were analyzed by Western blotting with a specific antibody as previously described respectively.
(§2) Figure 4 Inhibitory effect of 19a on DENV-induced cyclooxygenase-2 (COX-2) expression in Huh-7 cells. […] The results are expressed as the means ± standard deviations (SD) of triplicate experiments.

DENV [2] = assay: DENV RNA levels by RT-qPCR in DENV-infected Huh-7 cells; format: cell-based, dengue virus; details: 0.5, 1, 5 and 10 μM, three days
Text: To further confirm the anti-DENV effect of compound 19a, we treated compound 19a at indicated concentrations in Huh-7 cells for three days.
Total cellular RNA samples were extracted after three days of compound treatment through a Total RNA Miniprep Purification Kit (GeneMark Biolab, Taiwan) following the manufacturer’s instructions, and then transcribed to complementary DNA (cDNA) with Moloney murine leukemia virus (M-MLV) reverse transcriptase (Promega, USA). The levels of DENV-2 replication and COX-2 were analyzed by RT-PCR as described previously with the following specific primers: a forward primer, 5′–[…] AGC–3′, and a reverse primer, 5′–[…]–3′, targeting the DENV-2 NS5 gene 44. DENV-2 and COX-2 RNA levels were normalized to the cellular glyceraldehyde-3-phosphate dehydrogenase (GAPDH) RNA level of each sample.
Figure 2 Inhibition of dengue virus (DENV) RNA expression in DENV-infected Huh-7 cells by 19a. Huh-7 cells were treated with 0.5, 1, 5, and 10 μM 19a for three days. Total RNA was extracted and quantified DENV RNA levels by RT-qPCR. DENV RNA expression was normalized by cellular glyceraldehyde-3-phosphate dehydrogenase (GAPDH) mRNA. Treatment with 0.1% dimethyl sulfoxide (DMSO) served as a mock control. The results are expressed as the means ± standard deviations (SD) of triplicate experiments.

COX-2 expression = assay: COX-2 protein and mRNA expression in Huh-7 cells (Western blotting, RT-qPCR); format: cell-based, Human; details: 0.5 to 5 μM, vs DMSO
Description: as §1
Huh-7 cells were seeded in 24-well plates at a density of 5 × 10^4 cells per well overnight and treated with indicated reagent at proper concentrations for three days. […] The protein concentration was determined by the Bradford method. […] The blotting signal was developed using an enhanced chemiluminescence (ECL) detection kit (PerkinElmer, Waltham, MA, USA) and was counted by the software Quantity One (Bio-Rad, Hercules, CA, USA). […]
as §2

COc1ccc(-c2nc3ccccc3nc2C(O)c2ccccc2)cc1 (stereo not shown) [Compound 19a, [3-(4-Methoxyphenyl)quinoxalin-2-yl](phenyl)methanol]
viral RNA level reduced by compound upon increasing exogenous COX-2-Myc expression (DENV [1]): gradually rescued | DENV RNA replication (RT-qPCR) (DENV [2]): dose-dependently reduced | COX-2 mRNA level (COX-2 expression): could inhibit | COX-2 protein level (COX-2 expression): could inhibit
